IC90 data for 22 compounds are collected here from patent publication US11390604B2 (Hoffmann-La Roche Inc., priority 2019, dated 2022).

Where a name gives a salt, the structure may show the parent alone. Read-outs that look alike come from different tables or passages of the source.

This experiment has as its system Acinetobacter baumannii ATCC 17961. As to the kind of experiment: Antimicrobial susceptibility testing: 90% growth inhibitory concentration (IC90) determination. Format: cell-based. The settings on record: read-out: ATCC 17961 IC90. A digest of the protocol:
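Growth was followed kinetically by OD600 at 20-min intervals for 16 h at 35±2 °C, with ~5×10^5 CFU/ml in Iso-Sensitest broth. Compounds were tested as twofold dilutions (e.g. 50–0.097 μM final). The concentration giving 90% inhibition of log-phase growth was reported.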

The mark [1] stands for this setting: ATCC17961, Acinetobacter baumannii ATCC 17961, Iso-Sensitest broth.

On to `Cn1c(-c2cn(CC#N)nc2C(F)(F)F)cnc1C(=O)Nc1ccc(C(=O)N2CCN(C(=O)C3(O)CCCNC3)CC2)c(Cl)c1` (stereo not shown) [Example 72, N-[3-chloro-4-[4-(3-hydroxypiperidine-3-carbonyl)piperazine-1-carbonyl]phenyl]-5-[1-(cyanomethyl)-3-(trifluoromethyl)pyrazol-4-yl]-1-methylimidazole-2-carboxamide;2,2,2-trifluoroacetic acid], for which the concentration for an effect of 90% (IC90) – broadly, the concentration at which the effect reaches the 90% level – under setting [1] stood at 2260 nM. The same measure, in the same setting: the result for `CCn1cc(-c2cnc(C(=O)Nc3ccc(C(=O)N4CCN(C(=O)N[C@H]5C[C@@H](N)C5)CC4)c(Cl)c3)n2C)c(C(F)(F)F)n1` [Example 168, rac-N-((1s,3s)-3-aminocyclobutyl)-4-(2-chloro-4-(5-(1-ethyl-3-(trifluoromethyl)-1H-pyrazol-4-yl)-1-methyl-1H-imidazole-2-carboxamido)benzoyl)piperazine-1-carboxamide Hydrochloride] reads 347 nM; that for `CCc1cc(NC(=O)c2ncc(-c3cn(CC#N)nc3C(F)(F)F)n2C)ccc1C(=O)N1CCN(C(=O)C2CNC2)CC1` [Example 131, N-[4-[4-(azetidine-3-carbonyl)piperazine-1-carbonyl]-3-ethylphenyl]-5-[1-(cyanomethyl)-3-(trifluoromethyl)pyrazol-4-yl]-1-methylimidazole-2-carboxamide;formic acid], 1700 nM.

With “rac-4-(2-chloro-4-(5-(1- cyclopropyl-3-(trifluoromethyl)- 1H-pyrazol-4-yl)-1-methyl-1H- imidazole-2- carboxamido)benzoyl)-N- ((1s,3s)-3- (methylamino)cyclobutyl)pipera- zine-1-carboxamide formate [Example 256]”, the IC90 (Acinetobacter baumannii ATCC 17961, Iso-Sensitest broth) was 313 nM. Regarding `Cn1c(-c2cn(CC3CC3)nc2C(F)(F)F)cnc1C(=O)Nc1ccc(C(=O)N2CCN(C(=O)[C@@H]3CC[C@@H](N)C3)CC2)c(Cl)c1` [Example 206, N-(4-(4-((1R,3R)-3-aminocyclopentane-1-carbonyl)piperazine-1-carbonyl)-3-chlorophenyl)-5-(1-(cyclopropylmethyl)-3-(trifluoromethyl)-1H-pyrazol-4-yl)-1-methyl-1H-imidazole-2-carboxamide], the IC90 under setting [1] came out at 224 nM. `Cn1c(-c2cn(CC(F)F)nc2C(F)(F)F)cnc1C(=O)Nc1ccc(C(=O)N2CCN(C(=O)C3CCNCC3)CC2)c(F)c1` [Example 301, 5-(1-(2,2-difluoroethyl)-3-(trifluoromethyl)-1H-pyrazol-4-yl)-N-(3-fluoro-4-(4-(piperidine-4-carbonyl)piperazine-1-carbonyl)phenyl)-1-methyl-1H-imidazole-2-carboxamide]: the IC90 under setting [1] is 369 nM. On the same count and under the same terms, the result for `Cc1nc(Cn2cc(-c3cnc(C(=O)Nc4ccc(C(=O)NC5CC(N)C5)c(Cl)c4)n3C)c(C(F)(F)F)n2)cs1` (stereo not shown) [Example 124, N-[4-[(3-aminocyclobutyl)carbamoyl]-3-chlorophenyl]-1-methyl-5-[1-[(2-methyl-1,3-thiazol-4-yl)methyl]-3-(trifluoromethyl)pyrazol-4-yl]imidazole-2-carboxamide;hydrochloride] reads 1800 nM; that for `Cn1c(-c2cn(C3CC3(F)F)nc2C(F)(F)F)cnc1C(=O)Nc1ccc(C(=O)N[C@H]2[C@@H]3CN(C(=O)N4CCN(CCCN)CC4)C[C@@H]32)c(Cl)c1` (stereo partly drawn) [Example 264, N-(4-(((1R,5S,6s)-3-(4-(3-aminopropyl)piperazine-1-carbonyl)-3-azabicyclo[3.1.0]hexan-6-yl)carbamoyl)-3-chlorophenyl)-5-(1-(2,2-difluorocyclopropyl)-3-(trifluoromethyl)-1H-pyrazol-4-yl)-1-methyl-1H-imidazole-2-carboxamide], 325 nM; that for `CCc1cc(NC(=O)c2ncc(-c3cn(C)nc3C(F)(F)F)n2C)ccc1C(=O)NCCOCCN` [Example 57, N-(4-((2-(2-aminoethoxy)ethyl)carbamoyl)-3-ethylphenyl)-1-methyl-5-(1-methyl-3-(trifluoromethyl)-1H-pyrazol-4-yl)-1H-imidazole-2-carboxamide hydrochloride], 4150 nM. Consider `Cn1c(-c2cn(CCC(F)(F)F)nc2C(F)(F)F)cnc1C(=O)Nc1ccc(C(=O)N2CCN(C(=O)C3CCNCC3)CC2)c(Cl)c1` [Example 98, N-[3-chloro-4-[4-(piperidine-4-carbonyl)piperazine-1-carbonyl]phenyl]-1-methyl-5-[3-(trifluoromethyl)-1-(3,3,3-trifluoropropyl)pyrazol-4-yl]imidazole-2-carboxamide;hydrochloride], for which, under setting [1], the IC90 came out at 362 nM.

As to `CCn1cc(-c2cnc(C(=O)Nc3ccc(C(=O)N4CCC(CCC(C)(C)N(C)C)CC4)c(Cl)c3)n2C)c(C(F)(F)F)n1` [Example 360, N-(3-chloro-4-(4-(3-(dimethylamino)-3-methylbutyl)piperidine-1-carbonyl)phenyl)-5-(1-ethyl-3-(trifluoromethyl)-1H-pyrazol-4-yl)-1-methyl-1H-imidazole-2-carboxamide], the IC90 under setting [1] worked out at 474 nM. The same measure, in the same setting: the result for `Cn1c(-c2cn(CCC3CC3)nc2C(F)(F)F)cnc1C(=O)Nc1ccc(C(=O)N2CCN(C(=O)C3CCNCC3)CC2)c(Cl)c1` [Example 352, N-(3-chloro-4-(4-(piperidine-4-carbonyl)piperazine-1-carbonyl)phenyl)-5-(1-(2-cyclopropylethyl)-3-(trifluoromethyl)-1H-pyrazol-4-yl)-1-methyl-1H-imidazole-2-carboxamide hydrochloride] reads 458 nM; that for `Cn1c(-c2cn(C3CC3)nc2C(F)(F)F)cnc1C(=O)Nc1ccc(C(=O)N2CCN(C(=O)[C@@H]3C[C@H](F)CN3)CC2)c(Cl)c1` [Example 367, N-(3-chloro-4-(4-((2S,4S)-4-fluoropyrrolidine-2-carbonyl)piperazine-1-carbonyl)phenyl)-5-(1-cyclopropyl-3-(trifluoromethyl)-1H-pyrazol-4-yl)-1-methyl-1H-imidazole-2-carboxamide hydrochloride], 484 nM; that for `Cc1cc(NC(=O)c2ncc(-c3c[nH]nc3C(F)(F)F)n2C)ccc1C(=O)NCCCCCCN` [Example 49, N-(4-((6-aminohexyl)carbamoyl)-3-methylphenyl)-1-methyl-5-(3-(trifluoromethyl)-1H-pyrazol-4-yl)-1H-imidazole-2-carboxamide hydrochloride], 2830 nM. In the case of `Cn1c(-c2cn(CC#N)nc2C(F)(F)F)cnc1C(=O)Nc1ccc(C(=O)N[C@H]2C[C@@H](NC(=O)N[C@@H]3CC[C@H](N)C3)C2)c(Cl)c1` [Example 275, N-[4-[[3-[[(1R,3S)-3-aminocyclopentyl]carbamoylami-no]cyclobutyl]carbamoyl]-3-chloro-phenyl]-5-[1-(cyanomethyl)-3-(trifluoromethyl)pyrazol-4-yl]-1-methyl-imidazole-2-carboxamide; formic acid], under setting [1], the IC90 amounted to 341 nM. The same measure, in the same setting: the result for `CC#CCn1cc(-c2cnc(C(=O)Nc3ccc(C(=O)N4CCN(C(=O)C5CCNCC5)CC4)c(Cl)c3)n2C)c(C(F)(F)F)n1` [Example 8, 5-(1-(but-2-yn-1-yl)-3-(trifluoromethyl)-1H-pyrazol-4-yl)-N-(3-chloro-4-(4-(piperidine-4-carbonyl)piperazine-1-carbonyl)phenyl)-1-methyl-1H-imidazole-2-carboxamide hydrochloride] reads 327 nM.

For `C[C@H](N)C(=O)N1CCN(C(=O)c2ccc(NC(=O)c3ncc(-c4cn(CC5CCC5)nc4C(F)(F)F)n3C)cc2Cl)CC1` [Example 278, N-(4-(4-(L-alanyl)piperazine-1-carbonyl)-3-chlorophenyl)-5-(1-(cyclobutylmethyl)-3-(trifluoromethyl)-1H-pyrazol-4-yl)-1-methyl-1H-imidazole-2-carboxamide hydrochloride], the IC90 under setting [1] worked out at 344 nM.

Turning to `C#CCn1cc(-c2cnc(C(=O)Nc3ccc(C(=O)NCCCN)c(Cl)c3)n2C)c(C(F)(F)F)n1` [Example 44, N-(4-((3-aminopropyl)carbamoyl)-3-chlorophenyl)-1-methyl-5-(1-(prop-2-yn-1-yl)-3-(trifluoromethyl)-1H-pyrazol-4-yl)-1H-imidazole-2-carboxamide 2,2,2-trifluoroacetate], the IC90 under setting [1] was determined as 556 nM. On the same count and under the same terms, for `C#CCn1cc(-c2cnc(C(=O)Nc3ccc(C(=O)N4CCN(C(=O)NC5CC6(CNC6)C5)CC4)c(Cl)c3)n2C)c(C(F)(F)F)n1` [Example 89, N-(2-azaspiro[3.3]heptan-6-yl)-4-[2-chloro-4-[[1-methyl-5-[1-prop-2-ynyl-3-(trifluoromethyl)pyrazol-4-yl]imidazole-2-carbonyl]amino]benzoyl]piperazine-1-carboxamide] the value was 235 nM; for `Cn1c(-c2cn(CC3(C)CSC3)nc2C(F)(F)F)cnc1C(=O)Nc1ccc(C(=O)N2CCN(C(=O)C3CCNCC3)CC2)c(Cl)c1` [Example 107, N-[3-chloro-4-[4-(piperidine-4-carbonyl)piperazine-1-carbonyl]phenyl]-1-methyl-5-[1-[(3-methylthietan-3-yl)methyl]-3-(trifluoromethyl)pyrazol-4-yl]imidazole-2-carboxamide;hydrochloride], 444 nM. For `Cn1c(-c2cn(C3CC3)nc2C(F)(F)F)cnc1C(=O)Nc1ccc(C(=O)N2CCN(C(=O)N[C@H]3C[C@@H](N)C3)CC2)c(Cl)c1` [Example 240, rac-N-((1s,3s)-3-aminocyclobutyl)-4-(2-chloro-4-(5-(1-cyclopropyl-3-(trifluoromethyl)-1H-pyrazol-4-yl)-1-methyl-1H-imidazole-2-carboxamido)benzoyl)piperazine-1-carboxamide formate], the IC90 under setting [1] is 274 nM. As to `Cn1c(-c2cn(C3CC3(F)F)nc2C(F)(F)F)cnc1C(=O)Nc1ccc(C(=O)N2C3CCC2CNC3)c(Cl)c1` (stereo not shown) [Example 268, N-(4-(3,8-diazabicyclo[3.2.1]octane-8-carbonyl)-3-chlorophenyl)-5-(1-(2,2-difluorocyclopropyl)-3-(trifluoromethyl)-1H-pyrazol-4-yl)-1-methyl-1H-imidazole-2-carboxamide formate], the IC90 under setting [1] stood at 332 nM.
